In US20160206539A1, “COMPOSITION FOR SKIN AND SCALP HEALTH” (CONOPCO, INC., d/b/a UNILEVER, priority 2013, published 2016):

What was measured:
[1] = tested on: Neonatal Human Epidermal Melanocytes (NHEM) and HaCat; test: Reduction in melanin content assay (MCA) in melanocyte/keratinocyte co-culture; conditions: 72 hours treatment, relative to vehicle control
Xanthomonas oryzae = conditions: dilute solution sprayed on rice inoculated with Xanthomonas oryzae; cited from earlier work

## CCc1ccc(O)cc1O [Ethyl resorcinol, reference compound]
[1]; 0.00014 wt % active (Example A)
  Reduction in melanin content: 21.5%

## C=C1C(=O)OC2C[C@]3(C)C(CC12)C(=C)C(O)C[C@H]3O (some centres unmarked) [Granilin]
Xanthomonas oryzae
  Decrease of infection on the leaves: about 75%
[1]; 0.0005 wt % active (Example 1)
  Reduction in melanin content: 30.4%
[1]; 0.00075 wt % active (Example 2)
  Reduction in melanin content: 47.6%
[1]; 0.001 wt % active (Example 3)
  Reduction in melanin content: 52.3%
